According to ChEMBL document CHEMBL1138438, “Structural-activity relationship study of highly-functionalized imidazolines as potent inhibitors of nuclear transcription factor-kappaB mediated IL-6 production” (Bioorg Med Chem, 2009):
Values belong to the compound of their own block, whether it stands above or below them. Activity calls are given as the source filed them. No cut-off for these calls is given here.

How the values were obtained:
[1] = Inhibition of NF-kappaB-mediated gene transcription expressed in TNF-alpha-stimulated human HeLa cells for 30 mins before TNFalpha challenge measured after 8 hrs by steady-glo luciferase reporter gene assay; type: cell-based
[2] = system: Blood; assay: Antiinflammatory activity in human whole blood assessed as inhibition of IL-1-beta-stimulated IL6 production preincubated 2 hrs before IL1-beta challenge measured after 18 hrs by ELISA; type: functional, tissue-based
[3] = system: HeLa; assay: Stimulation of NF-kappaB-mediated gene transcription expressed in human HeLa cells for 30 mins before TNFalpha challenge measured after 8 hrs by steady-glo luciferase reporter gene assay; type: cell-based
[4] = Cytotoxicity against human 184B5 cells after 24 hrs by MTS assay; type: cell-based

Compound: CCOC(=O)[C@]1(c2ccccc2)N=C(c2ccccc2)N(Cc2ccccc2)[C@@H]1c1ccc(F)cc1 (racemic)
EC50 [1]: 5 µM
Activity [2]: Dose-dependent effect
IC50 ([2]; read-out: IC50): 1 µM
IC50 ([2]; read-out: Log IC50 (converted)): 1.05 µM
Activity [3]: inactive
CC50 at 24 h [4]: > 10 µM

Compound: CCOC(=O)[C@]1(c2ccccc2)N=C(c2ccccc2)N(Cc2ccc(C(F)(F)F)cc2)[C@@H]1c1ccccc1 (racemic)
EC50 [1]: 6.7 µM
Activity [2]: Dose-dependent effect
IC50 ([2]; read-out: IC50): 1.5 µM
IC50 ([2]; read-out: Log IC50 (converted)): 1.48 µM
Activity [3]: inactive
CC50 at 24 h [4]: > 10 µM

Compound: CCOC(=O)[C@]1(c2ccccc2)N=C(c2ccccc2)N(Cc2ccc(Br)cc2)[C@@H]1c1ccccc1 (racemic)
EC50 [1]: 2.7 µM
Activity [2]: Dose-dependent effect
IC50 ([2]; read-out: IC50): 0.5 µM
IC50 ([2]; read-out: Log IC50 (converted)): 2 µM
Activity [3]: inactive
CC50 at 24 h [4]: > 10 µM

Compound: CCOC(=O)[C@]1(c2ccccc2)N=C(c2ccccc2)N[C@@H]1c1ccccc1 (racemic)
EC50 [1]: 116 µM
Activity [2]: Dose-dependent effect
IC50 ([2]; read-out: IC50): > 20 µM
IC50 ([2]; read-out: Log IC50 (converted)): 34.7 µM
Activity [3]: inactive
CC50 at 24 h [4]: > 10 µM

Compound: NC(=O)[C@]1(c2ccccc2)N=C(c2ccccc2)N(Cc2ccccc2)[C@@H]1c1ccccc1 (racemic)
EC50 [1]: > 20 µM
Activity [2]: Dose-dependent effect
IC50 ([2]; read-out: IC50): > 20 µM
IC50 ([2]; read-out: Log IC50 (converted)): 46.8 µM
Activity [3]: inactive
CC50 at 24 h [4]: > 10 µM

Compound: COC(=O)[C@]1(C(C)C)N=C(c2ccccc2)N(Cc2ccccc2)[C@@H]1c1ccccc1 (racemic)
EC50 [1]: 20 µM
Activity [2]: Dose-dependent effect
IC50 ([2]; read-out: IC50): 7.1 µM
IC50 ([2]; read-out: Log IC50 (converted)): 7.08 µM
Activity [3]: inactive
CC50 at 24 h [4]: > 10 µM

Compound: CCOC(=O)[C@]1(c2ccccc2)N=C(c2ccccc2)N(S(=O)(=O)c2ccc(C)cc2)[C@@H]1c1ccccc1 (racemic)
EC50 [1]: 36.1 µM
Activity [2]: Dose-dependent effect
IC50 ([2]; read-out: IC50): 6.6 µM
IC50 ([2]; read-out: Log IC50 (converted)): 6.61 µM
Activity [3]: inactive
CC50 at 24 h [4]: > 10 µM

Compound: CCOC(=O)[C@]1(c2ccccc2)N=C(c2ccccc2)N(Cc2ccccc2)[C@@H]1c1ccc(N)cc1 (racemic)
EC50 [1]: 10.4 µM
Activity [2]: Dose-dependent effect
IC50 ([2]; read-out: IC50): 0.5 µM
IC50 ([2]; read-out: Log IC50 (converted)): 0.457 µM
Activity [3]: inactive
CC50 at 24 h [4]: > 10 µM

Compound: CCOC(=O)[C@]1(c2ccccc2)N=C(c2ccccc2)N(Cc2ccccc2)[C@@H]1c1ccc(Cl)cc1 (racemic)
EC50 [1]: 1.5 µM
Activity [2]: Dose-dependent effect
IC50 ([2]; read-out: IC50): 0.3 µM
IC50 ([2]; read-out: Log IC50 (converted)): 0.0617 µM
Activity [3]: inactive
CC50 at 24 h [4]: > 10 µM

Compound: CCOC(=O)[C@]1(c2ccccc2)N=C(c2ccccc2)N(Cc2ccc(F)cc2)[C@@H]1c1ccccc1 (racemic)
EC50 [1]: 5.2 µM
Activity [2]: Dose-dependent effect
IC50 ([2]; read-out: IC50): 1.2 µM
IC50 ([2]; read-out: Log IC50 (converted)): 1.2 µM
Activity [3]: inactive
CC50 at 24 h [4]: > 10 µM

Compound: CCOC(=O)[C@]1(c2ccccc2)N=C(c2ccccc2)N(Cc2ccccc2)[C@@H]1c1ccco1 (racemic)
EC50 [1]: 7.6 µM
Activity [2]: Dose-dependent effect
IC50 ([2]; read-out: IC50): 1.9 µM
IC50 ([2]; read-out: Log IC50 (converted)): 1.91 µM
Activity [3]: inactive
CC50 at 24 h [4]: > 10 µM

Compound: CCOC(=O)[C@]1(c2ccccc2)N=C(c2ccccc2)N(Cc2ccccc2)[C@@H]1c1ccc([N+](=O)[O-])cc1 (racemic)
EC50 [1]: 3.4 µM
Activity [2]: Dose-dependent effect
IC50 ([2]; read-out: IC50): 0.5 µM
IC50 ([2]; read-out: Log IC50 (converted)): 0.537 µM
Activity [3]: inactive
CC50 at 24 h [4]: > 10 µM

More lines, main results first:

EC50 [1]: 1.4 µM
IC50 ([2]; read-out: IC50): 0.8 µM
IC50 ([2]; read-out: Log IC50 (converted)): 0.851 µM
Compound: CCOC(=O)[C@]1(c2ccccc2)N=C(c2ccccc2)N(Cc2ccccc2)[C@@H]1c1ccc(C(F)(F)F)cc1 (racemic)
Activity [2]: Dose-dependent effect
Activity [3]: inactive
CC50 at 24 h [4]: > 10 µM

EC50 [1]: > 20 µM
IC50 ([2]; read-out: IC50): 3 µM
IC50 ([2]; read-out: Log IC50 (converted)): 2.95 µM
Compound: COC(=O)[C@]1(C)N=C(c2ccccc2)N(Cc2ccccc2)[C@@H]1c1ccccc1 (racemic)
Activity [2]: Dose-dependent effect
Activity [3]: inactive
CC50 at 24 h [4]: > 10 µM

EC50 [1]: 168 µM
IC50 ([2]; read-out: IC50): > 20 µM
Compound: CCOC(=O)[C@]1(c2ccccc2)N=C(c2ccccc2)N(C(C)=O)[C@@H]1c1ccccc1 (racemic)
Activity [2]: Dose-dependent effect
Activity [3]: inactive
CC50 at 24 h [4]: > 10 µM

EC50 [1]: 5.5 µM
IC50 ([2]; read-out: IC50): 1.3 µM
IC50 ([2]; read-out: Log IC50 (converted)): 1.29 µM
Compound: CCOC(=O)[C@]1(c2ccccc2)N=C(c2ccccc2)N(Cc2ccco2)[C@@H]1c1ccccc1 (racemic)
Activity [2]: Dose-dependent effect
Activity [3]: inactive
CC50 at 24 h [4]: > 10 µM

EC50 [1]: 5 µM
IC50 ([2]; read-out: IC50): 1.4 µM
IC50 ([2]; read-out: Log IC50 (converted)): 1.38 µM
Compound: CCOC(=O)[C@]1(c2ccccc2)N=C(c2ccccc2)N(Cc2ccc(OC)cc2)[C@@H]1c1ccccc1 (racemic)
Activity [2]: Dose-dependent effect
Activity [3]: inactive
CC50 at 24 h [4]: > 10 µM

EC50 [1]: > 20 µM
IC50 ([2]; read-out: IC50): 9.4 µM
IC50 ([2]; read-out: Log IC50 (converted)): 9.33 µM
Compound: CCOC(=O)[C@]1(c2ccccc2)N=C(c2ccccc2)N(Cc2ccccc2)[C@@H]1c1ccncc1 (racemic)
Activity [2]: Dose-dependent effect
Activity [3]: inactive
CC50 at 24 h [4]: > 10 µM

EC50 [1]: 3.5 µM
IC50 ([2]; read-out: IC50): 5.9 µM
IC50 ([2]; read-out: Log IC50 (converted)): 5.89 µM
Compound: O=C(OCc1ccccc1)[C@]1(c2ccccc2)N=C(c2ccccc2)N(Cc2ccccc2)[C@@H]1c1ccccc1 (racemic)
Activity [2]: Dose-dependent effect
Activity [3]: inactive
CC50 at 24 h [4]: > 10 µM

EC50 [1]: 2.3 µM
IC50 ([2]; read-out: IC50): 1.9 µM
IC50 ([2]; read-out: Log IC50 (converted)): 1.95 µM
Compound: CCCOC(=O)[C@]1(c2ccccc2)N=C(c2ccccc2)N(Cc2ccccc2)[C@@H]1c1ccccc1 (racemic)
Activity [2]: Dose-dependent effect
Activity [3]: inactive
CC50 at 24 h [4]: > 10 µM

EC50 [1]: 5.3 µM
IC50 ([2]; read-out: IC50): 4.1 µM
IC50 ([2]; read-out: Log IC50 (converted)): 4.07 µM
Compound: COC(=O)[C@]1(Cc2ccccc2)N=C(c2ccccc2)N(Cc2ccccc2)[C@@H]1c1ccccc1 (racemic)
Activity [2]: Dose-dependent effect
Activity [3]: inactive
CC50 at 24 h [4]: > 10 µM

EC50 [1]: 4.2 µM
IC50 ([2]; read-out: IC50): 1.6 µM
IC50 ([2]; read-out: Log IC50 (converted)): 1.58 µM
Compound: CCOC(=O)[C@]1(c2ccccc2)N=C(c2ccccc2)N(Cc2ccc(Cl)cc2)[C@@H]1c1ccccc1 (racemic)
Activity [2]: Dose-dependent effect
Activity [3]: inactive
CC50 at 24 h [4]: > 10 µM

EC50 [1]: 24.9 µM
IC50 ([2]; read-out: IC50): 6.6 µM
IC50 ([2]; read-out: Log IC50 (converted)): 6.61 µM
Compound: CCOC(=O)[C@]1(c2ccccc2)N=C(c2ccccc2)N(C(=O)c2ccccc2)[C@@H]1c1ccccc1 (racemic)
Activity [2]: Dose-dependent effect
Activity [3]: inactive
CC50 at 24 h [4]: > 10 µM

EC50 [1]: 3.5 µM
IC50 ([2]; read-out: IC50): 1.9 µM
IC50 ([2]; read-out: Log IC50 (converted)): 1.95 µM
Compound: CC(C)OC(=O)[C@]1(c2ccccc2)N=C(c2ccccc2)N(Cc2ccccc2)[C@@H]1c1ccccc1 (racemic)
Activity [2]: Dose-dependent effect
Activity [3]: inactive
CC50 at 24 h [4]: > 10 µM

EC50 [1]: 3.6 µM
IC50 ([2]; read-out: IC50): 1.3 µM
IC50 ([2]; read-out: Log IC50 (converted)): 1.29 µM
Compound: CCOC(=O)[C@]1(c2ccccc2)N=C(c2ccccc2)N(Cc2ccccc2)[C@@H]1c1ccc(OC)cc1 (racemic)
Activity [2]: Dose-dependent effect
Activity [3]: inactive
CC50 at 24 h [4]: > 10 µM

EC50 [1]: 13 µM
IC50 ([2]; read-out: IC50): 16.1 µM
IC50 ([2]; read-out: Log IC50 (converted)): 16.2 µM
Compound: COC(=O)[C@]1(Cc2cc3ccccc3[nH]2)N=C(c2ccccc2)N(Cc2ccccc2)[C@@H]1c1ccccc1 (racemic)
Activity [2]: Dose-dependent effect
Activity [3]: inactive
CC50 at 24 h [4]: > 10 µM

EC50 [1]: 7.5 µM
IC50 ([2]; read-out: IC50): 3 µM
IC50 ([2]; read-out: Log IC50 (converted)): 3.02 µM
Compound: COC(=O)[C@]1(c2ccccc2)N=C(c2ccccc2)N(Cc2ccccc2)[C@@H]1c1ccccc1 (racemic)
Activity [2]: Dose-dependent effect
Activity [3]: inactive
CC50 at 24 h [4]: > 10 µM

EC50 [1]: 1.7 µM
IC50 ([2]; read-out: IC50): 4.6 µM
IC50 ([2]; read-out: Log IC50 (converted)): 4.57 µM
Compound: CCOC(=O)[C@]1(c2ccccc2)N=C(c2ccccc2)N(Cc2ccc(C)cc2)[C@@H]1c1ccccc1 (racemic)
Activity [2]: Dose-dependent effect
Activity [3]: inactive
CC50 at 24 h [4]: > 10 µM
